One block for each molecule: values may come before it. Non-standard residues stand in square brackets, D forms with d. Residues, ends and D or L forms follow the SMILES beside them. Dmt = Cc1cc(O)cc(C)c1C[C@H](N)C(=O)O
What was measured:
BALB/c male mice [1] = test: Adriamycin (ADR)-induced glomerular damage model; type: in vivo, mouse; conditions: ADR 1 x 10 mg/kg i.p. alone, at the time of sacrifice
Method: (§1) All experiments were conducted in accordance with federal and local regulations, according to a protocol approved by the animal ethics committee of the Canton de Vaud, Switzerland (No. 2655.0). Kidney injury was induced by intraperitoneal (i.p.) injection of AA (Sigma-Aldrich, 1 × 5 mg/kg) or ADR (Adriblastin, Pfizer, 1 × 10 mg/kg) in 10-week-old BALB/c male mice (n = 5–7 mice/experimental group). SS-31 analogs were diluted in 0.9% NaCl and administered i.p. once a day, starting 1 day before the disease-inducing drugs (day −1) at a dose of 3 mg/kg and then daily until day 6. The animals were weighted at days 0, 3, and 6, and sacrificed at day 7. The level of protein in urine was semi-quantitatively assessed using Albustix reagent strips (Bayer, Basel, Switzerland). At the end of the treatment period, the mice were sacrificed to remove both kidneys. The kidneys were spliced in four equal fragments containing the cortex and medulla. One fragment was immediately snap-frozen in liquid nitrogen for real-time quantitative polymerase chain reaction (qRT-PCR) and Western blot experiments, one fragment was included in OCT (Tissue-Tek, VWR International, Dietikon, Switzerland) and frozen for histoenzymography, one fragment was frozen at −80°C and used for pharmacokinetic (PK) measurements, and one fragment was fixed in 4% paraformaldehyde and included in paraffin for histology. […]

[2] = Stability in mouse plasma at 37°C; type: in vitro ADME
Method: Finally, we determined if α-Glu functionalization of SS-31 would improve the plasma stability of the compound. SS-31 or α-Glu-SS-31 (at 1 µM concentration) was added to heparinized mouse plasma, and the aliquots were incubated at 37°C for various time points before analysis ( Table 2 ). After a rapid decrease of α-Glu-SS-31 concentration, associated with the appearance of free SS-31, in mouse plasma, the concentration of both compounds remained stable for up to 5 h, whereas SS-31 concentration decreased regularly during the same period of time.

aminopeptidase A (APA) [3] = biological target: T1, aminopeptidase A (APA) (Mus musculus, UniProt P16406); test: Histoenzymography of APA activity on frozen kidney sections of ADR-treated mice; type: biochemical; conditions: kidney sections of ADR-exposed mice, α-Glu-βNA substrate, 37°C
T1 construct: from tissue; host or cells: frozen kidney sections of ADR-treated BALB/c male mice
T1 sequence (P16406 1-945): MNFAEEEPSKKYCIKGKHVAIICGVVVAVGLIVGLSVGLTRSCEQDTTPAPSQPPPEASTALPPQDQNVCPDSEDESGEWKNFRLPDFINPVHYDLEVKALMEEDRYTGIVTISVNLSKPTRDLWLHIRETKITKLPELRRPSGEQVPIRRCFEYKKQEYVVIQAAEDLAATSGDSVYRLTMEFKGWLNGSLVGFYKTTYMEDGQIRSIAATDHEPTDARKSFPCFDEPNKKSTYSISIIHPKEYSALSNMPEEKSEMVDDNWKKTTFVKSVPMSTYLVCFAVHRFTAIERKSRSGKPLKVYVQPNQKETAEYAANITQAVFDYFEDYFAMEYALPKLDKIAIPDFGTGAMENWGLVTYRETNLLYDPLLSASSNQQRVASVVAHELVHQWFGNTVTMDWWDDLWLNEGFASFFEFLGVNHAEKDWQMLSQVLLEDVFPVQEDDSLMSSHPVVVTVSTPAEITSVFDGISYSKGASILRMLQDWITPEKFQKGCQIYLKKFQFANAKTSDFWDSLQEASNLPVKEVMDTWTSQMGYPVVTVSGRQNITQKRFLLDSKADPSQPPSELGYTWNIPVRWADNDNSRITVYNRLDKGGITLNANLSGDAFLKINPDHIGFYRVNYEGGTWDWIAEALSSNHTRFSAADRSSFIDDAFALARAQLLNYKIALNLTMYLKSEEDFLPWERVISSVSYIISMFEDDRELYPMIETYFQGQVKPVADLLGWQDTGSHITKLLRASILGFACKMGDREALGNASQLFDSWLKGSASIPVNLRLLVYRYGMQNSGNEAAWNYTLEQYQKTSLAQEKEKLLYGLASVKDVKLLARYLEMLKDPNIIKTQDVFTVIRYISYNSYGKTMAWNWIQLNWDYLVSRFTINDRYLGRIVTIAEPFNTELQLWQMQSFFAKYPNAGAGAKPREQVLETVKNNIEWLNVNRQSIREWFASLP
Method: (§2) Enzymatic activities were evaluated by histoenzymography on OCT-embedded frozen kidneys sections (7 µm), as previously described ([Juillerat-Jeanneret et al., 1992]; [Juillerat-Jeanneret et al., 2000]; [Juillerat-Jeanneret et al., 2003]). Briefly, slides were fixed for 5 min in cold (−20°C) acetone, air dried at room temperature, rehydrated for 5 min in 0.9% NaCl, and exposed to the α-Glu-4-methoxy-β-naphtylamide (APA; Bachem) or γ-Glu-4-methoxy-β-naphtylamide (γ-GT; Serva) substrates and Fast Blue B (Sigma-Aldrich) at 37°C for 15 to 60 min until a red coloration was visible. The slides were washed in distilled water, counterstained with hematoxylin (Mayer) for 1 min, rinsed under tap water and then with Scott solution for 1 min, and mounted in Aquamount (Immu-mount; Thermo Shandon, Pittsburgh, PA, USA) and analyzed with a Nikon Eclipse E800 microscope and digital DXM1200 camera using ACT-1 software.
(§3) Sequential sections (7 µm) of frozen OCT-embedded kidneys of adriamycin (ADR)-treated mice were exposed at 37°C to β-methoxynaphthylamide (β-NA) specific substrates of aminopeptidase A (α-Glu-βNA, upper panels) or γ-glutamyltranspeptidase (γ-Glu-βNA, lower panels) and Fast Blue B, in the absence (none) or the presence of SS-31, α-Glu-SS-31 or γ-Glu-SS-31. The sections were then counterstained with light hematoxylin reagent. The enzymatic activity is visualized as a red precipitate. […]

aminopeptidase A (APA) [4] = biological target: T2, aminopeptidase A (APA) (Rattus norvegicus, UniProt P50123); test: APA enzymatic activity in intact living EC219 cells (α-Glu-AMC substrate); type: cell-based
T2 construct: These cells express high levels of APA and γ-GT activities and can be used to measure kinetics in living cells; endogenous in cells; host or cells: EC219 rat brain-derived endothelial cells
T2 sequence (P50123 whole entry): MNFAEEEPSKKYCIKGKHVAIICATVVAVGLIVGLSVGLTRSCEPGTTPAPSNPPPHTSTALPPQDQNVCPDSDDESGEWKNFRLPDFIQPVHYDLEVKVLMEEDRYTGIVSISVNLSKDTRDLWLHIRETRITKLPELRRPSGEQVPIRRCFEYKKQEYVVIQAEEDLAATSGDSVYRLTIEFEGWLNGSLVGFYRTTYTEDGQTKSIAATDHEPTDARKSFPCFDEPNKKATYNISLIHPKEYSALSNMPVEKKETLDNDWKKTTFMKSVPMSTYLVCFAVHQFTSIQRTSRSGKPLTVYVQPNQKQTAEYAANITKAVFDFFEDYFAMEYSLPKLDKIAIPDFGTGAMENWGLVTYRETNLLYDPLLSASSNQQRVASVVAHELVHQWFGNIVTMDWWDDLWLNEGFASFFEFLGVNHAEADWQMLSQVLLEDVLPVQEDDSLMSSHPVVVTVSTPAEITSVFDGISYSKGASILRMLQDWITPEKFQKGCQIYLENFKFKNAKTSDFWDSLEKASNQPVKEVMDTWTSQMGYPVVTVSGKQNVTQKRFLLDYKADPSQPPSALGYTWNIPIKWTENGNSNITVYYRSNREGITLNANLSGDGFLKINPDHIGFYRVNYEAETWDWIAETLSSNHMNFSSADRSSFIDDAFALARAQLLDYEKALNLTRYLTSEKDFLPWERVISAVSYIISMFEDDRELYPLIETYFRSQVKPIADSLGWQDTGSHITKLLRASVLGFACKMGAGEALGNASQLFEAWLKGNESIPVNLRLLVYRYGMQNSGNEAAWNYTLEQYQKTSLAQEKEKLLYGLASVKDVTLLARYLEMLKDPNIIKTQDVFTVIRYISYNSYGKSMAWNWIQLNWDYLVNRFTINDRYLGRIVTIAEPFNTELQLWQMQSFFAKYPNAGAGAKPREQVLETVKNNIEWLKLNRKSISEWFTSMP
Method: The preparation and characterization of rat brain-derived EC219 endothelial cells were previously described ([Juillerat-Jeanneret et al., 1992]). These cells express high levels of APA and γ-GT activities and can be used to measure kinetics in living cells as APA and γ-GT-positive representative cell models. The cells were grown in Dulbecco’s modified Eagle medium (DMEM) containing 1 g/L glucose, 10% heat-inactivated fetal calf serum (FCS), and antibiotics on uncoated cell culture plastic plates and flasks. MDCK and LLCPK cells were obtained from the American Tissue Culture Collection (ATCC, Manassas, VA, USA) and were grown in DMEM containing 4.5 g/L glucose, 10% FCS, and antibiotics. mCCD, and mDCT cells were a kind gift from O. Bonny (UNIL, Lausanne, Switzerland) and were cultured in DMEM (Ham’s F12 1:1 vol/vol, 60 nM sodium selenate, 5 μg/ml transferrin, 50 nM dexamethasone, 1 nM triiodothyronine, 10 ng/ml epidermal growth factor, 5 μg/ml insulin) and 2% FCS. The characteristics of the used cell lines are shown in Supplementary Table S2 .
Stock solutions of α-Glu-AMC (APA) and γ-Glu-AMC and Gly-Gly (γ-GT) substrates, all from Bachem, were prepared at 10 mM in DMSO. EC219 cells were grown to confluence in 96-well plates (Corning, NY, USA), then the culture medium was removed, and the cell layers washed once with 100 µl PBS and 100 µl of substrates at decreasing concentrations (320–10 µM) of α-Glu-AMC or γ-Glu-AMC and 20 mM Gly-Gly substrates diluted in PBS and increasing concentrations (0–20 µM) of SS-31 analogs were added. The increase in […] was measured at 37°C in a thermostated fluorescence multiwell-plate reader (CytoFluor Series 4000; PerSeptive Biosystems, MA, USA) at λex = 360 nm/λem = 460 nm using the linear portion of the curves. The kinetics values were then graphically determined or according to Wu and colleagues ([Wu et al., 2011]).
(A) Intact living EC219 cells were exposed to increasing concentrations of either amastatin (left panel) or acivicin (right panel), two well-characterized enzymatic activity inhibitors of APA or γ-GT, respectively. The activities of the enzymes aminopeptidase A (APA) or γ-glutamyltranspeptidase (γ-GT) were determined using 40 µM of the substrates (S), α-Glu-AMC or γ-Glu-AMC, respectively. (B) Intact living EC219 cells were exposed to increasing concentrations [10-320 µM] of the APA α-Glu-AMC substrate, in the presence of increasing concentrations of SS-31 or α-Glu-SS-31, and the increase of free AMC fluorescence was recorded. Data were analyzed graphically. (DMSO 0.2% was present in all samples).

BALB/c male mice [5] = test: Aristolochic acid (AA)-induced acute tubulo-interstitial kidney injury model; type: in vivo, mouse; conditions: AA 1 x 5 mg/kg i.p. alone; control group 44 ± 5
Method: as §1

[6] = biological target: T3, γ-glutamyltranspeptidase (γ-GT) (Mus musculus, UniProt Q60928); test: Histoenzymography of γ-GT activity on frozen kidney sections of ADR-treated mice; type: biochemical; conditions: kidney sections of ADR-exposed mice, γ-Glu-βNA substrate, 37°C
T3 construct: from tissue; host or cells: frozen kidney sections of ADR-treated BALB/c male mice
T3 sequence (Q60928 whole entry): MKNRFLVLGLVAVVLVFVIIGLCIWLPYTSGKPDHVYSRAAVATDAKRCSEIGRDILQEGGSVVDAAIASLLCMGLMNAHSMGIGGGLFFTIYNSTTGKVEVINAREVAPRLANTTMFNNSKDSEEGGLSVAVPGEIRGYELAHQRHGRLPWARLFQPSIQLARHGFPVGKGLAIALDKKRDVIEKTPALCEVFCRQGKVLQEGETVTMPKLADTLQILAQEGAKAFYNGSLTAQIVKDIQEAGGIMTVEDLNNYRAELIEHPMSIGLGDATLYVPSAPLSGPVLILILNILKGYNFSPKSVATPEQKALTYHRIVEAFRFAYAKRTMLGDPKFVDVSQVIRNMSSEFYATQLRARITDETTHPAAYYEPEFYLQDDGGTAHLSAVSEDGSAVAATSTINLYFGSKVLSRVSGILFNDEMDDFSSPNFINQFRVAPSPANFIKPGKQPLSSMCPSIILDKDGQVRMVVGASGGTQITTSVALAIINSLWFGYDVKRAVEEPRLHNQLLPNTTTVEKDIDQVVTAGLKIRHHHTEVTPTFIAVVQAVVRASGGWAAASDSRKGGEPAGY
Method: as §2, §3

[7] = biological target: T4, γ-glutamyltranspeptidase (γ-GT) (Rattus norvegicus, UniProt P07314); test: γ-GT enzymatic activity in intact living EC219 cells (γ-Glu-AMC substrate); type: cell-based; conditions: 40 µM γ-Glu-AMC
T4 construct: These cells express high levels of APA and γ-GT activities and can be used to measure kinetics in living cells; endogenous in cells; host or cells: EC219 rat brain-derived endothelial cells
T4 sequence (P07314 whole entry): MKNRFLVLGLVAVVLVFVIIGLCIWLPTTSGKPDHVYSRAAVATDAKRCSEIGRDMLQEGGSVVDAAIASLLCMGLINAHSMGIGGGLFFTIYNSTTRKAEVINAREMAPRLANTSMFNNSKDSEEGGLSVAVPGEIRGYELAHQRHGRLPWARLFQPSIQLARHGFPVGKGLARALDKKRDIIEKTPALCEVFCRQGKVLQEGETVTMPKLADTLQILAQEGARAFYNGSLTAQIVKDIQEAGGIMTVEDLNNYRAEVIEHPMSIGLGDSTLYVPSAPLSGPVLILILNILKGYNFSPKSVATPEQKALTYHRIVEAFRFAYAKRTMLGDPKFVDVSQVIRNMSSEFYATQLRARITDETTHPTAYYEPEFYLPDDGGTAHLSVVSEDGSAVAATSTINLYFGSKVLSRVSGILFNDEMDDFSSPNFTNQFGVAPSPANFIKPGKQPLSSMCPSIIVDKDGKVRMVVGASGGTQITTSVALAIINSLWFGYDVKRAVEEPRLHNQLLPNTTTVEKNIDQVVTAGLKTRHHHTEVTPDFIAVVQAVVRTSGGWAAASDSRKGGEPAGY
Method: The preparation and characterization of rat brain-derived EC219 endothelial cells were previously described ([Juillerat-Jeanneret et al., 1992]). These cells express high levels of APA and γ-GT activities and can be used to measure kinetics in living cells as APA and γ-GT-positive representative cell models. The cells were grown in Dulbecco’s modified Eagle medium (DMEM) containing 1 g/L glucose, 10% heat-inactivated fetal calf serum (FCS), and antibiotics on uncoated cell culture plastic plates and flasks. […]
Stock solutions of α-Glu-AMC (APA) and γ-Glu-AMC and Gly-Gly (γ-GT) substrates, all from Bachem, were prepared at 10 mM in DMSO. […] The increase in absorbance was measured at 37°C in a thermostated fluorescence multiwell-plate reader (CytoFluor Series 4000; PerSeptive Biosystems, MA, USA) at λex = 360 nm/λem = 460 nm using the linear portion of the curves. The kinetics values were then graphically determined or according to Wu and colleagues ([Wu et al., 2011]).
(A) Intact living EC219 cells were exposed to increasing concentrations of either amastatin (left panel) or acivicin (right panel), two well-characterized enzymatic activity inhibitors of APA or γ-GT, respectively. The activities of the enzymes aminopeptidase A (APA) or γ-glutamyltranspeptidase (γ-GT) were determined using 40 µM of the substrates (S), α-Glu-AMC or γ-Glu-AMC, respectively. […] Data were analyzed graphically. […]

Molecule: COc1cccc2c1C(=O)c1c(O)c3c(c(O)c1C2=O)C[C@@](O)(C(=O)CO)C[C@@H]3O[C@H]1C[C@H](N)[C@H](O)[C@H](C)O1 [ADR, adriamycin]
- mean creatinine (BALB/c male mice [1]): 33 ± 5 µmol/L

Molecule: Cc1cc(O)cc(C)c1C[C@H](NC(=O)[C@@H](CCCNC(=N)N)NC(=O)[C@@H](N)CCC(=O)O)C(=O)N[C@@H](CCCCN)C(=O)N[C@@H](Cc1ccccc1)C(N)=O [α-Glu-SS-31, H-Glu-D-Arg-DMT-Lys-Phe-NH 2 .2TFA] (H-E[dR][Dmt]KF-NH2)
- Release of SS-31 from α-Glu-SS-31 ([2]; 1 μM, time 0 h): 7.5%
- Stability [% of T0] ([2]; 1 μM, time 0 h): 100%
- Release of SS-31 from α-Glu-SS-31 ([2]; 1 μM, time 0.5 h): 9%
- Release of SS-31 from α-Glu-SS-31 ([2]; 1 μM, time 1 h): 9%
- Release of SS-31 from α-Glu-SS-31 ([2]; 1 μM, time 3 h): 10%
- Release of SS-31 from α-Glu-SS-31 ([2]; 1 μM, time 5 h): 9%
- remaining at 0.5 h, 1 µM ([2]; heparinized mouse plasma, time 0.5 h, read-out: Stability [% of T0]): 68.5%
- remaining at 1 h, 1 µM ([2]; heparinized mouse plasma, time 1 h, read-out: Stability [% of T0]): 68.3%
- remaining at 3 h, 1 µM ([2]; heparinized mouse plasma, time 3 h, read-out: Stability [% of T0]): 66.9%
- remaining at 5 h, 1 µM ([2]; heparinized mouse plasma, time 5 h, read-out: Stability [% of T0]): 65.8%
- enzymatic activity of APA (histoenzymography) (aminopeptidase A (APA) [3]): selectively inhibited
- IC50 (aminopeptidase A (APA) [4]): 13.7 ± 6.7 µM
- inhibition of APA activity (aminopeptidase A (APA) [4]; intact living EC219 cells): selective inhibition

Molecule: COc1cccc2c1cc([N+](=O)[O-])c1c(C(=O)O)cc3c(c12)OCO3 [AA, aristolochic acid]
- mean creatinine (BALB/c male mice [5]): 258 ± 92 µmol/L

- enzymatic activity of APA (histoenzymography) (aminopeptidase A (APA) [3]): not
- enzymatic activity of γ-GT (histoenzymography) [6]: modified neither
Molecule: H-γ-Glu-D-Arg-DMT-Lys-Phe-NH 2 .2TFA [γ-Glu-SS-31]

- IC50 [7]: 48 µM
Molecule: N[C@H](C(=O)O)[C@@H]1CC(Cl)=NO1 [acivicin]
